MIC data for eight compounds are collected here from DBAASP.

In brackets after ≈: the same amount, converted by molar mass.

Among the test systems are Escherichia coli D31; Escherichia coli UB1005; Candida albicans; Enterobacter cloacae; Klebsiella pneumoniae; Staphylococcus aureus; Citrobacter sp.; Streptococcus pneumoniae.
What all share (test): ≥ marks a high value that may be exact or a test limit, other limits are often not marked, values filed in µg/mL are converted to µM
For test [1], the system named is Bacillus subtilis ATCC 6051.
Test [2] relates to Pseudomonas aeruginosa PAO1.
The subject of test [3] is Staphylococcus aureus ATCC 27660.
Test [4] deals with Acinetobacter baumannii ATCC 19606.
Test [5] concerns Candida albicans ATCC 24433.
Test [6] relates to Escherichia coli ATCC 25922.
Test [7] concerns Staphylococcus epidermidis ATCC 12228.
Test [8] deals with Enterococcus faecalis NCTC 12697.
For test [9], the system named is Staphylococcus aureus NCTC 12493.
Test [10] relates to Candida albicans NCYC 1467.
In test [11] the test system is Klebsiella pneumoniae ATCC 43816.
Test [12] relates to Staphylococcus aureus NCTC 10788.
The test system of test [13] is Escherichia coli NCTC 10418.
Test [14] deals with Pseudomonas aeruginosa ATCC 27853.
Test [15] has as its system Candida parapsilosis CGMCC 2.3989.
Test [16] concerns Staphylococcus aureus ATCC 29213.
In test [17] the test system is Salmonella enterica subsp. enterica serovar Typhimurium C77-31.
The subject of test [18] is Staphylococcus aureus ATCC 25923.
Test [19] has as its system Candida tropicalis CGMCC 2.1975.
Test [20] concerns Salmonella enterica subsp. enterica serovar Typhimurium ATCC 14028.
The subject of test [21] is Enterococcus faecalis ATCC 29212.
In test [22] the test system is Staphylococcus aureus ATCC 43300.
In test [23] the test system is Salmonella enterica subsp. enterica serovar Choleraesuis CVCC 503.
In test [24] the test system is Pseudomonas aeruginosa ATCC 15442.
The subject of test [25] is Acinetobacter baumannii ATCC 15308.

Regarding `CC(C)C[C@H](NC(=O)[C@H](C)N)C(=O)N[C@@H](Cc1c[nH]c2ccccc12)C(=O)N[C@@H](CCCN=C(N)N)C(=O)N[C@@H](CCCN=C(N)N)C(=O)N[C@@H](CC(C)C)C(=O)N[C@@H](CC(C)C)C(=O)N[C@@H](CCCN=C(N)N)C(=O)N[C@@H](CCCN=C(N)N)C(=O)N[C@@H](CC(C)C)C(=O)N[C@@H](CC(C)C)C(=O)N[C@@H](CCCN=C(N)N)C(=O)N[C@@H](CO)C(=O)N[C@@H](C)C(=O)N[C@@H](CCCN=C(N)N)C(=O)N[C@@H](CCCN=C(N)N)C(=O)N[C@@H](CC(C)C)C(=O)NCC(N)=O` [ALWRRLLRRLLRSARRLG], the MIC in [1] stood at 1.88 µM (≈ 4.24 µg/mL); against Escherichia coli D31, 1.88 µM (≈ 4.24 µg/mL); in [2] it was 7.5 µM (≈ 17 µg/mL); in test [3], 3.75 µM (≈ 8.48 µg/mL); in [4], 3.75 µM (≈ 8.48 µg/mL).
On to `CC[C@H](C)[C@H](NC(=O)CNC(=O)[C@@H](NC(=O)[C@H](C)NC(=O)[C@@H](NC(=O)[C@H](CCCCN)NC(=O)[C@@H]1CCCN1C(=O)[C@@H](NC(=O)[C@H](CCSC)NC(=O)[C@H](CO)NC(=O)[C@H](Cc1ccccc1)NC(=O)[C@@H](N)Cc1ccccc1)[C@@H](C)CC)[C@@H](C)CC)[C@@H](C)O)C(=O)N[C@@H](C)C(=O)N[C@@H](CO)C(=O)N[C@@H](CC(C)C)C(=O)N[C@H](C(=O)N[C@@H](CCCCN)C(=O)N[C@@H](CC(=O)O)C(=O)N[C@@H](CC(C)C)C(N)=O)C(C)C` [FFSMIPKIATGIASLVKDL], for which the figures for the MIC in test [5], in [6] and in [7] were no less than 100 µM, greater than 100 µM and greater than 100 µM, respectively.
In the case of `CC[C@H](C)[C@H](NC(=O)[C@H](C)NC(=O)[C@H](C)NC(=O)[C@@H]1CCCN1C(=O)[C@@H](NC(=O)[C@H](CC(C)C)NC(=O)[C@H](CCCCN)NC(=O)CNC(=O)[C@H](C)NC(=O)[C@@H](NC(=O)[C@H](CCCCN)NC(=O)[C@H](CC(C)C)NC(=O)[C@@H](NC(=O)[C@H](C)NC(=O)CNC(=O)[C@H](CC(C)C)NC(=O)[C@@H](N)Cc1ccccc1)C(C)C)C(C)C)C(C)C)C(=O)O` [FLGAVLKVAGKLVPAAI], the MIC in test [8], in [9], in [10], in test [11], in test [12] and in test [13] was no less than 512 µM throughout.
In the case of `CC[C@H](C)[C@H](NC(=O)CNC(=O)[C@@H](NC(=O)[C@H](C)NC(=O)[C@@H](NC(=O)[C@H](Cc1cnc[nH]1)NC(=O)[C@@H]1CCCN1C(=O)[C@@H](NC(=O)[C@H](CC(C)C)NC(=O)[C@H](CO)NC(=O)[C@H](CC(C)C)NC(=O)[C@@H](N)Cc1ccccc1)[C@@H](C)CC)[C@@H](C)CC)[C@@H](C)O)C(=O)N[C@@H](C)C(=O)N[C@@H](C)C(=O)N[C@@H](CC(C)C)C(=O)N[C@@H](C)C(=O)N[C@@H](CCCCN)C(=O)N[C@@H](Cc1cnc[nH]1)C(=O)N[C@@H](CC(C)C)C(N)=O` [FLSLIPHIATGIAALAKHL], the values for the MIC in test [5], in [6] and in test [7] were no less than 100 µM, 50 µM (≈ 99.3 µg/mL) and 12.5 µM (≈ 24.8 µg/mL), respectively.
For `CC(C)C[C@H](NC(=O)[C@H](CCC(N)=O)NC(=O)[C@H](CCC(N)=O)NC(=O)[C@H](C)NC(=O)CNC(=O)[C@H](C)NC(=O)[C@H](CCCCN)NC(=O)CNC(=O)[C@@H](NC(=O)[C@H](CCC(N)=O)NC(=O)[C@H](CCCCN)NC(=O)[C@H](C)NC(=O)[C@H](CC(C)C)NC(=O)[C@H](Cc1ccc(O)cc1)NC(=O)[C@H](CCCCN)NC(=O)[C@H](C)NC(=O)CNC(=O)[C@H](C)NC(=O)[C@H](CCCCN)NC(=O)[C@H](Cc1ccccc1)NC(=O)[C@H](CC(C)C)NC(=O)[C@H](CO)NC(=O)[C@H](CO)NC(=O)[C@H](Cc1ccccc1)NC(=O)CN)C(C)C)C(N)=O` [GFSSLFKAGAKYLAKQVGKAGAQQL], the MIC in [8] is 8 µM (≈ 20.5 µg/mL); in test [9], 16 µM (≈ 41.1 µg/mL); in test [10], 16 µM (≈ 41.1 µg/mL); in test [14], 32 µM (≈ 82.2 µg/mL); in test [11], no less than 128 µM; in [12], 8 µM (≈ 20.5 µg/mL). Moreover, the MIC in test [13] was 8 µM (≈ 20.5 µg/mL).
As to `CC[C@H](C)[C@@H]1NC(=O)[C@H](C)NC(=O)[C@@H](NC(=O)[C@H](Cc2ccccc2)NC(=O)[C@H](Cc2c[nH]c3ccccc23)NC(=O)[C@H](CCCCN)NC(=O)[C@H](Cc2c[nH]c3ccccc23)NC(=O)[C@@H]2CCCN2C(=O)[C@H](CC(C)C)NC(=O)[C@H](Cc2ccccc2)NC(=O)[C@@H](N)CCCCN)CSSC[C@@H](C(=O)O)NC(=O)[C@H](CCCCN)NC(=O)[C@H](CCCCN)NC(=O)[C@H]([C@@H](C)O)NC1=O` [KFLPWKWFCAITKKC], the MIC in test [8] was no less than 256 µM; in test [9], 8 µM (≈ 15.2 µg/mL); in test [10], 16 µM (≈ 30.4 µg/mL); in test [14], 64 µM (≈ 121 µg/mL); in test [11], no less than 32 µM; in [12], 8 µM (≈ 15.2 µg/mL). The MIC in test [13] stood at 16 µM (≈ 30.4 µg/mL).
For the compound `CC(C)C[C@H](NC(=O)[C@H](CCCN=C(N)N)NC(=O)[C@H](C)NC(=O)[C@H](CS)NC(=O)[C@H](CC(C)C)NC(=O)[C@H](CCCCN)NC(=O)[C@H](CCCCN)NC(=O)[C@H](CC(C)C)NC(=O)[C@H](CCCN=C(N)N)NC(=O)[C@H](C)NC(=O)[C@H](CS)NC(=O)[C@H](CC(C)C)NC(=O)[C@H](CCCCN)NC(=O)[C@H](CCCCN)NC(=O)[C@@H](N)CC(C)C)C(=O)N[C@@H](CCCCN)C(=O)N[C@@H](CCCCN)C(=O)N[C@@H](CC(C)C)C(=O)N[C@@H](CS)C(=O)N[C@@H](C)C(=O)N[C@@H](CCCN=C(N)N)C(N)=O` [LKKLCARLKKLCARLKKLCAR], the MIC in [15] was 8 µM (≈ 19.7 µg/mL); in the test on Escherichia coli UB1005, 2 µM (≈ 4.91 µg/mL); in [16], greater than 64 µM; in [17], no less than 64 µM; in test [18] it was greater than 64 µM; in [19], 2 µM (≈ 4.91 µg/mL). The MIC in test [14] was 16 µM (≈ 39.3 µg/mL); in test [2] it was 16 µM (≈ 39.3 µg/mL); in test [20], 32 µM (≈ 78.6 µg/mL); in [21], greater than 64 µM; in test [22], 32 µM (≈ 78.6 µg/mL); against Candida albicans, 5.66 µM (≈ 13.9 µg/mL). For the same compound, the MIC in test [23] is 8 µM (≈ 19.7 µg/mL); in [7], greater than 64 µM.
For the compound `CC(C)C[C@H](NC(=O)[C@@H](N)CC(C)C)C(=O)N1CCC[C@H]1C(=O)N[C@@H](Cc1c[nH]c2ccccc12)C(=O)N[C@@H](CCCCN)C(=O)N[C@@H](Cc1c[nH]c2ccccc12)C(=O)N1CCC[C@H]1C(=O)N[C@@H](Cc1c[nH]c2ccccc12)C(=O)N[C@@H](Cc1c[nH]c2ccccc12)C(=O)N[C@@H](CCCCN)C(=O)N[C@@H](Cc1c[nH]c2ccccc12)C(=O)N[C@@H](CCCN=C(N)N)C(=O)N[C@@H](CCCN=C(N)N)C(N)=O` [LLPWKWPWWKWRR], the MIC is no less than 129 µM in the test with Enterobacter cloacae; greater than 129 µM against Klebsiella pneumoniae; 16.1 µM (≈ 31.2 µg/mL) in test [18]; 16.1 µM (≈ 31.2 µg/mL) against Staphylococcus aureus; no less than 129 µM in the test with Citrobacter sp.; 16.1 µM (≈ 31.2 µg/mL) in test [24]. Besides, the MIC was no less than 129 µM in [25], 16.1 µM (≈ 31.2 µg/mL) in [6] and 16.1 µM (≈ 31.2 µg/mL) against Streptococcus pneumoniae.
